One assay addresses T1, human PDE4B1 (Homo sapiens, UniProt Q07343).
T1 construct: purchased BPS Biosciences
The experiment in a line: PDElight HTS cAMP phosphodiesterase assay, PDE4B1. As to conditions: for IC50: read-out: PDE 4B1 IC50 ± SEM; for inhibition at 10 µM: read-out: PDE 4B1 % Inhibition ± SEM at 10 µM. It is filed as biochemical. As to the method: Further biological evaluation of the presented compound library was performed determining inhibitory potencies against selected human PDE isoforms, namely, PDE4 and PDE10 (for results see Table 3).
Tested and reference compounds were dissolved in dimethyl sulfoxide (DMSO) at a concentration of 10 mM and further diluted in assay buffer (10 mM Tris-HCl, 10 mM magnesium chloride and 0.05% Tween-20; pH 7.4). Inhibition of human PDE10A and 4B1 was measured using PDElight HTS cAMP phosphodiesterase assay kit (Lonza, Basel, Switzerland) according to manufacturer’s recommendations. Then, 10 ng of PDE10A and 5 ng of PDE4B1 (BPS Biosciences, San Diego, CA, USA) in appropriate buffer was incubated with reference and tested compound for 20 min. […] Then PDELight AMP Detection Reagent was added and incubated 10 min. All reactions were carried out at 37 °C in 96 white-walled, half-area-well plates (PerkinElmer). Luminescence was measured in a multifunction plate reader (POLARstar Omega, BMG Labtech, Ortenberg, Germany). The percentage of inhibition and IC50s were computed using GraphPad Prism Version 6.0 software.

A further assay concerns the target T2, rat D1 receptor (Rattus norvegicus, UniProt P18901).
T2 construct: source of native rat D1 receptor protein; from tissue; host or cells: rat striatum (methods) / rat brain cortical membranes
The experiment in a line: Radioligand binding [3H]SCH23390, rat brain tissue. As to conditions: for Ki: native rat D1 receptor, read-out: rD1 [3H]SCH23390 Ki ± SEM; for inhibition at 1 µM: read-out: rD1 [3H]SCH23390 % inhibition ± SEM at 1 µM. Here is the method:
Rat brain cortical membranes were used as source of native rat D1 receptor protein, and human D2 receptor was recombinantly expressed in HEK293 cells.
Rat striatum tissue was thawed in 50 volumes of ice-cold 50 mM potassium phosphate buffer, pH 7.4, homogenized and centrifuged at 20,000× g for 20 min. The resulting pellet was resuspended in the same quantity of the buffer and centrifuged again for 20 min. Binding experiments were conducted in 96-well microplates in a total volume of 250 μL of appropriate buffers. Reaction mix included 50 μL solution of test compound, 50 μL of radioligand, and 150 μL of tissue suspension (3 mg/mL). [^3H]SCH23390 (spec. act. 81.9 Ci/mmol, PerkinElmer, NET 930) was used for labeling the D1-receptor. For measuring unspecific binding, cis(Z)flupentixol—5 μM was applied. Samples were incubated at 30 °C for 60 min. The incubation was terminated by rapid filtration over glass fiber filters GF/B using a Harvester (PerkinElmer, USA). The radioactivity was measured in MicroBeta TriLux 1450—liquid scintillation counter (PerkinElmer). Each compound was tested in a screening assay in duplicate at final concentrations of 1 µM. Results were expressed as a percent of inhibition of specific binding.

The target in a further assay is T3, rat A1 (rA1) ARs (Rattus norvegicus, UniProt P25099).
T3 construct: using rat brain cortical membrane preparations for A1; tissue Pel Freez; host or cells: rat brain cortex membranes
T3 sequence (P25099 1-326): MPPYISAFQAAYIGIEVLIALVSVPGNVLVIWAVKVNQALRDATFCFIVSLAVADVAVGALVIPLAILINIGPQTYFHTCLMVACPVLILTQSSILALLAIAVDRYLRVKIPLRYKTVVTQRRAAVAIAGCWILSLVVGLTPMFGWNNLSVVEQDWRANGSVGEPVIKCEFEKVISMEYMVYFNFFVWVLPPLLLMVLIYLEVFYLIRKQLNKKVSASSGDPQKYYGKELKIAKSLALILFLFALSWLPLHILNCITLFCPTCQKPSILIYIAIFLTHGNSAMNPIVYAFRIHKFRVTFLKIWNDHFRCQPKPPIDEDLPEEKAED
The experiment in a line: Radioligand binding [3H]CCPA, rat brain cortical membranes. As to conditions: read-out: rA1 [3H]CCPA Ki ± SEM. Here is the method: The final compounds were tested in radioligand binding assays to evaluate their affinity for all four ARs subtypes (see Table 2). Rat brain cortical membrane preparations were used as a source of rat A1 (rA1) ARs, and rat brain striatal membrane preparations served as a source of rat A2A (rA2A) ARs. For A2B- and A3AR assays, membrane preparations of Chinese hamster ovary (CHO) cells recombinantly expressing either human A2B (hA2B) or human A3 (hA3) ARs were employed.
Adenosine receptor radioligand binding assays were performed as previously described using rat brain cortical membrane preparations for A1 and rat brain striatal membrane preparations for A2A AR assays. Frozen rat brains (unstripped) were obtained from Pel Freez, Rogers, AR, USA. For assays at human AR subtypes, cell membranes of CHO cells recombinantly expressing the respective receptor were used. The following compounds were employed as radioligands: A1: [^3H]2-chloro-N^6-cyclopentyladenosine ([^3H]CCPA); A2A: [^3H]3-(3-hydroxypropyl)-7-methyl-8-(m-methoxystyryl)-1-propargylxanthine ([^3H]MSX-2); A2B: [^3H]8-(4-(4-(4-chlorophenyl)piperazine-1-sulfonyl)phenyl)-1-propylxanthine ([^3H]PSB-603); A3: [^3H]phenyl-8-ethyl-4-methyl-(8R)-4,5,7,8-tetrahydro-1H-imidazo[2,1-i]purine-5-one ([^3H]PSB-11). Initially, a single high concentration of compound was tested (1 µM). For potent compounds, full concentration–inhibition curves were determined using six to ten different concentrations of test compound spanning three orders of magnitude. At least three independent experiments were performed. Data were analyzed using GraphPad PRISM program version 4.0 or higher (Graph Pad, San Diego, CA, USA).

T1 sequence (Q07343 whole entry): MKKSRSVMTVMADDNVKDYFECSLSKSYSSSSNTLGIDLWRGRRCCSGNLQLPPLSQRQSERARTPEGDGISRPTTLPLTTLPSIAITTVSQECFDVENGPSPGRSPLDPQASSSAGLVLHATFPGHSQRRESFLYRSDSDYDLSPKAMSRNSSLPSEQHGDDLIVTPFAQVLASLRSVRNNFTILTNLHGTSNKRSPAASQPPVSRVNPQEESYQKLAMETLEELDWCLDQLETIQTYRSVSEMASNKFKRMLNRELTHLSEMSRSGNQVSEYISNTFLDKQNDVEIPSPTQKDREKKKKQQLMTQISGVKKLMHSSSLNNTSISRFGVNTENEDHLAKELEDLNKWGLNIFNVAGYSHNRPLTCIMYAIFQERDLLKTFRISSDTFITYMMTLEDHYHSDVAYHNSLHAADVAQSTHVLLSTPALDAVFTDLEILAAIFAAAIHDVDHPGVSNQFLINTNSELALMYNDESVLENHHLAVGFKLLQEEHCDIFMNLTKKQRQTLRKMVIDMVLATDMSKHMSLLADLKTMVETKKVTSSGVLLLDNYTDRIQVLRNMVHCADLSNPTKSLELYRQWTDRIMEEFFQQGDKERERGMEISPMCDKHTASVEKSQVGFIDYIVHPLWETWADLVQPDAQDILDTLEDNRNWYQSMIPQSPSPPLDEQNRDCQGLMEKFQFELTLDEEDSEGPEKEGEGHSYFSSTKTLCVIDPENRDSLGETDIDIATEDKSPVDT
T2 sequence (P18901 whole entry): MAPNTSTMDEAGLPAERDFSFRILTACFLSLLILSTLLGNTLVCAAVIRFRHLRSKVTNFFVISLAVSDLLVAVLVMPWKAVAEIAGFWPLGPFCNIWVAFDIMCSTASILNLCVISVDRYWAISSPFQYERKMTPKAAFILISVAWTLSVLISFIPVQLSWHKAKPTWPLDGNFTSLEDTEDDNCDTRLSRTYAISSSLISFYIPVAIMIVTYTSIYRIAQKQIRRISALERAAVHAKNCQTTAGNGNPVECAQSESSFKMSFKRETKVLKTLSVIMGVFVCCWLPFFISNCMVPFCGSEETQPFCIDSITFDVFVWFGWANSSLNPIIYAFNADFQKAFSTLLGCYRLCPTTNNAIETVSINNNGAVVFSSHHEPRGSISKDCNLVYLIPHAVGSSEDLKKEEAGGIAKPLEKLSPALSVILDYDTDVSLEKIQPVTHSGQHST

In the case of `Cn1c(=O)c2c(nc(NCCc3ccc(O)c(O)c3)n2C)n(C)c1=O` [Compound 11a, 8-((3,4-Dihydroxyphenethyl)amino)-1,3,7-trimethyl-3,7-dihydro-1H-purine-2,6-dione], the IC50 (as a rule, the concentration needed to halve the response being measured) at human PDE4B1 came out at 7850 ± 1850 nM. At rat D1 receptor, the Ki (in general, a dissociation constant, usually derived from enzyme kinetics or from competition with a known ligand) is > 1000 nM and the inhibition (commonly the drop in the measured response relative to a control, in per cent) at 1 µM worked out at 13%. For the same compound, at rat A1 (rA1) ARs, the Ki is 1980 ± 290 nM.

Take `CCn1c(NCCc2ccc(O)c(O)c2)nc2c1c(=O)n(C)c(=O)n2C` [Compound 11b, 8-((3,4-Dihydroxyphenethyl)amino)-7-ethyl-1,3-dimethyl-3,7-dihydro-1H-purine-2,6-dione]: the IC50 on human PDE4B1 was 2520 ± 140 nM. For the same compound, at rat D1 receptor, the Ki is > 1000 nM and the inhibition at 1 µM is 15%. Further, the Ki at rat A1 (rA1) ARs was determined as 479 ± 95 nM.

Take `CCCn1c(NCCc2ccc(O)c(O)c2)nc2c1c(=O)n(C)c(=O)n2C` [Compound 11c, 8-((3,4-Dihydroxyphenethyl)amino)-1,3-dimethyl-7-propyl-3,7-dihydro-1H-purine-2,6-dione]: the IC50 on human PDE4B1 is 3320 ± 800 nM. On rat D1 receptor, the Ki is > 1000 nM and the inhibition at 1 µM stood at 9%. Further, on rat A1 (rA1) ARs, the Ki came to 730 ± 93 nM.

As to `CC(C)n1c(NCCc2ccc(O)c(O)c2)nc2c1c(=O)n(C)c(=O)n2C` [Compound 11d, 8-((3,4-Dihydroxyphenethyl)amino)-7-isopropyl-1,3-dimethyl-3,7-dihydro-1H-purine-2,6-dione], the IC50 on human PDE4B1 turned out to be 2440 ± 800 nM. For the same compound, at rat D1 receptor, the inhibition constant (Ki) was > 1000 nM and the inhibition at 1 µM came to 15%. In addition, the Ki at rat A1 (rA1) ARs was 857 ± 43 nM.

With `CCCCn1c(NCCc2ccc(O)c(O)c2)nc2c1c(=O)n(C)c(=O)n2C` [Compound 11e, 7-Butyl-8-((3,4-dihydroxyphenethyl)amino)-1,3-dimethyl-3,7-dihydro-1H-purine-2,6-dione], the 50% inhibitory concentration (IC50) at human PDE4B1 was 3160 ± 530 nM. Further, at rat D1 receptor, the Ki is > 1000 nM and the inhibition at 1 µM came out at 13%. At rat A1 (rA1) ARs, the Ki amounted to 304 ± 66 nM.

For `CC(C)Cn1c(NCCc2ccc(O)c(O)c2)nc2c1c(=O)n(C)c(=O)n2C` [Compound 11f, 8-((3,4-Dihydroxyphenethyl)amino)-7-isobutyl-1,3-dimethyl-3,7-dihydro-1H-purine-2,6-dione], the IC50 at human PDE4B1 was found to be 3760 ± 160 nM. Also, at rat D1 receptor, the Ki was > 1000 nM and the inhibition at 1 µM is 15%. Besides, the Ki at rat A1 (rA1) ARs is 1130 ± 180 nM.

Consider `CCC(C)n1c(NCCc2ccc(O)c(O)c2)nc2c1c(=O)n(C)c(=O)n2C` (stereo not drawn) [Compound 11g, 7-(Sec-butyl)-8-((3,4-dihydroxyphenethyl)amino)-1,3-dimethyl-3,7-dihydro-1H-purine-2,6-dione], for which, on human PDE4B1, the IC50 was 4410 ± 230 nM. For the same compound, at rat D1 receptor, the Ki is > 1000 nM and the inhibition at 1 µM worked out at 11%. In addition, the Ki on rat A1 (rA1) ARs came to 1170 ± 380 nM.

With `CCCCCn1c(NCCc2ccc(O)c(O)c2)nc2c1c(=O)n(C)c(=O)n2C` [Compound 11h, 8-((3,4-Dihydroxyphenethyl)amino)-1,3-dimethyl-7-pentyl-3,7-dihydro-1H-purine-2,6-dione], at human PDE4B1, the IC50 amounted to 4430 ± 250 nM. Besides, at rat D1 receptor, the Ki is > 1000 nM and the inhibition at 1 µM amounted to 12%. In addition, the Ki at rat A1 (rA1) ARs worked out at 191 ± 30 nM.

In the case of `CCCCCCn1c(NCCc2ccc(O)c(O)c2)nc2c1c(=O)n(C)c(=O)n2C` [Compound 11i, 8-((3,4-Dihydroxyphenethyl)amino)-7-hexyl-1,3-dimethyl-3,7-dihydro-1H-purine-2,6-dione], at human PDE4B1, the inhibition at 10 µM was determined as 42% and the IC50 was > 10000 nM. Further, on rat D1 receptor, the Ki was > 1000 nM and the inhibition at 1 µM was found to be 9%. Also, the Ki on rat A1 (rA1) ARs is > 10000 nM.

In the case of `Cn1c(=O)c2c(nc(NCCc3ccc(O)c(O)c3)n2Cc2ccccc2)n(C)c1=O` [Compound 11j, 7-Benzyl-8-((3,4-dihydroxyphenethyl)amino)-1,3-dimethyl-3,7-dihydro-1H-purine-2,6-dione], on human PDE4B1, the IC50 stood at 3290 ± 540 nM. The Ki on rat D1 receptor is > 1000 nM; at rat A1 (rA1) ARs, 455 ± 77 nM. Also, the inhibition at 1 µM at rat D1 receptor stood at 3%.

Regarding `Cn1c(=O)c2c(nc(NCCc3ccc(O)c(O)c3)n2CCc2ccccc2)n(C)c1=O` [Compound 11k, 8-((3,4-Dihydroxyphenethyl)amino)-1,3-dimethyl-7-phenethyl-3,7-dihydro-1H-purine-2,6-dione], on human PDE4B1, the IC50 was found to be 4400 ± 540 nM. In addition, at rat D1 receptor, the Ki is > 1000 nM and the inhibition at 1 µM was determined as 6%. Further, the Ki on rat A1 (rA1) ARs is ≥ 10000 nM.

On to `Cn1c(=O)c2c(nc(NCCc3ccc(O)c(O)c3)n2CCOc2ccccc2)n(C)c1=O` [Compound 11l, 8-((3,4-Dihydroxyphenethyl)amino)-1,3-dimethyl-7-(2-phenoxyethyl)-3,7-dihydro-1H-purine-2,6-dione], for which, on human PDE4B1, the inhibition at 10 µM is 20% and the IC50 was > 10000 nM. Moreover, on rat D1 receptor, the Ki was > 1000 nM and the inhibition at 1 µM came out at 3%. For the same compound, the Ki at rat A1 (rA1) ARs came out at 124 ± 22 nM.

In the case of `CCCn1c(=O)c2c(nc(NCCc3ccc(O)c(O)c3)n2CCC)n(CCC)c1=O` [Compound 12, 8-((3,4-Dihydroxyphenethyl)amino)-1,3,7-tripropyl-3,7-dihydro-1H-purine-2,6-dione], the IC50 at human PDE4B1 worked out at 14500 ± 480 nM. For the same compound, on rat D1 receptor, the Ki was > 1000 nM and the inhibition at 1 µM amounted to 9%. In addition, on rat A1 (rA1) ARs, the Ki was 130 ± 31 nM.

As to `CCCCn1c(=O)c2c(nc(NCCc3ccc(O)c(O)c3)n2CCC)n(CCCC)c1=O` [Compound 13, 1,3-Dibutyl-8-((3,4-dihydroxyphenethyl)amino)-7-propyl-3,7-dihydro-1H-purine-2,6-dione], at human PDE4B1, the inhibition at 10 µM was found to be 28% and the IC50 was > 10000 nM. At rat D1 receptor, the Ki was > 1000 nM and the inhibition at 1 µM worked out at 2%. For the same compound, the Ki at rat A1 (rA1) ARs was 100 ± 15 nM.

`Cn1c(=O)c2c(nc3n2CCCN3CCc2ccc(O)c(O)c2)n(C)c1=O` [Compound 20a, 9-(3,4-Dihydroxyphenethyl)-1,3-dimethyl-6,7,8,9-tetrahydropyrimido[2,1-f]purine-2,4(1H,3H)-dione]: at human PDE4B1, the inhibition at 10 µM was determined as 44% and the IC50 is > 10000 nM. In addition, at rat D1 receptor, the Ki is > 1000 nM and the inhibition at 1 µM turned out to be 15%. In addition, the Ki at rat A1 (rA1) ARs is ≥ 10000 nM.

On to `Cn1c(=O)c2c(nc3n2CCCCN3CCc2ccc(O)c(O)c2)n(C)c1=O` [Compound 20b, 10-(3,4-Dihydroxyphenethyl)-1,3-dimethyl-7,8,9,10-tetrahydro-1H-[1, 3]diazepino[2,1-f]purine-2,4(3H,6H)-dione], for which, on human PDE4B1, the inhibition at 10 µM came to 45% and the IC50 was > 10000 nM. Further, at rat D1 receptor, the Ki was > 1000 nM and the inhibition at 1 µM amounted to 15%. Besides, the Ki on rat A1 (rA1) ARs came to 1050 ± 170 nM.

The record behind these values is publication PMC10377586 (Biomolecules, 2023).
